# Source: US20100197743A1, “Use of sulphur-containing heteroaromatic acid analogues” (Bayer CropScience AG, priority 2008, published 2010)
# Tested on: black Sigatoka fungus Mycosphaerella figiensis
# Experiment: Field study of black Sigatoka control on Cavendish bananas (Stover method)
# Format: in vivo, Mycosphaerella figiensis on Cavendish bananas
# Parameters: key to YLI last determ. (youngest infected leaf): leaf number of youngest leaf showing Sigatoka symptoms; YLI AUDPC / SEV AUDPC: unit not given here
# Details: for SEV last determ. (severity of the disease) / YLI last determ. (youngest infected leaf): foliar spray, eight applications at seven-day intervals, last determination Oct. 23, 2008; for SEV ABBOTT: % severity calculated as described by ABBOTT; for SEV AUDPC / YLI AUDPC: area under the disease progress curve over the complete study period
# From the text: If the banana disease caused by the black Sigatoka fungus Mycosphaerella figiensis is not controlled, the latter can destroy the banana leaves and greatly reduce the yield. To control Sigatoka, commercially available fungicides are used which are usually applied to banana plants by foliar application.
# It was intended to determine whether isotianil is capable of controlling the black Sigatoka infection with reference to studies carried out on Cavendish bananas in Devao del Norte in the southern Philippines.
# Compound I-2 as defined above was formulated as a suspension concentrate formulation (200 SC) with Banol mineral oil and water in a ratio of 0.5 l of compound I-2 (200 SC), 5 l of oil and 74 l of water. The emulsifier used was 0.05 l of Lutensol so as to maintain the oil/water mixture as a stable emulsion.
# After the formulation procedure, the mixture was sprayed onto banana trees using engine-driven spray mist applicators which applied a total volume of 80 l/ha.
# This was followed by eight applications at seven-day intervals between Aug. 28 and Oct. 16, 2008. The isotianil application rate was 50, 75 and 100 g of a.i./ha, respectively.
# For comparison with the isotianil plots, one plot was left untreated, and a further plot was sprayed with Sico (difenconazole 250 SC), a commercially available fungicide which is used for controlling black Sigatoka. Sico was sprayed together with Banol oil and Lutensol at an application rate of 100 g of a.i./ha, as above.
# Each plot consisted of two banana plants at the BBCH growth stage 1056-1100. Each treatment consisted of three replications.
# After the application, the disease level on the banana leaves was determined according to several parameters which are defined by the “Stover method” (Stover, 1971 R. H. Stover, A proposed international scale for estimating intensity of banana leaf spot, Tropical Agriculture).
# Youngest infected leaf (YLI): This parameter records which leaf of the plant was the youngest leaf to show initial symptoms of Sigatoka infection. This is important since this has a direct relationship with the degree of infection, since the youngest leaves are infected last. Under the test conditions, the plants produce approximately one new leaf per week.
# The severity of the disease (SEV) describes the direct percentage of visual disease on the plant.
# The youngest infected leaf and the severity of the disease were determined weekly after the first application. The data hereinbelow describe the results of the last determination measured at the end of the experiment, on Oct. 23, 2008. After the weekly determination, moreover, the data were compiled in the form of a graph, and the area under the disease progress curve (AUDPC) was calculated over the complete study period and is listed hereinbelow. Moreover, % severity was calculated as described by ABBOTT.
structure (smiles),measurement,setting,value
"N#Cc1ccccc1NC(=O)c1snc(Cl)c1Cl [Compound I-2, isotianil]",SEV last determ. (severity of the disease),50 g of a.i./ha,5.3%
same,YLI last determ. (youngest infected leaf),50 g of a.i./ha,4
same,SEV ABBOTT,50 g of a.i./ha,72.4%
same,SEV AUDPC,50 g of a.i./ha,314
same,YLI AUDPC,50 g of a.i./ha,223
same,SEV last determ. (severity of the disease),75 g of a.i./ha,5%
same,YLI last determ. (youngest infected leaf),75 g of a.i./ha,4
same,SEV ABBOTT,75 g of a.i./ha,74%
same,SEV AUDPC,75 g of a.i./ha,285
same,YLI AUDPC,75 g of a.i./ha,224
same,SEV last determ. (severity of the disease),100 g of a.i./ha,5.3%
same,YLI last determ. (youngest infected leaf),100 g of a.i./ha,4
same,SEV ABBOTT,100 g of a.i./ha,72.6%
same,SEV AUDPC,100 g of a.i./ha,313
same,YLI AUDPC,100 g of a.i./ha,119
